Counter-ions that a name gives are not always drawn.
Tests used:
[1] = biological target: T1, catalytic domain (JH1, amino acids 808-1132) of human JAK2 (Homo sapiens, UniProt O60674); experiment: JAK2 HTRF Enzyme Activity Assay; assay type: biochemical; conditions: ATP 30 μM, read-out: ENZ 30UMATP
T1 construct: catalytic domain (JH1, amino acids 808-1132) of human JAK2; His (N); purchased BPS Bioscience 40450; host or cells: baculovirus expression system
Summary of the method: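 His-tagged JAK2 JH1 from baculovirus, 0.015 nM, incubated with compound, ATP at 30 μM or 1 mM and 500 nM biotinylated peptide, pH 7.5, 60 min at 25° C. HTRF read-out via Eu-anti-phosphotyrosine and streptavidin-APC after EDTA stop; IC50 from four-parameter dose-response fit.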

[2] = biological target: T2, catalytic domain (JH1, amino acids 826-1132) of human JAK2 (Homo sapiens, UniProt O60674); experiment: JAK2 LanthaScreen JH1 Binding Assay; conditions: 2 hours at 25° C.
T2 construct: catalytic domain (JH1, amino acids 826-1132) of human JAK2; purchased Carna Biosciences 08-445-20N; host or cells: baculovirus expression system
Summary of the method: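 FLAG-tagged biotinylated JAK2 JH1 (1.5 nM) incubated with compounds, 50 nM fluorescent tracer and 0.5 nM streptavidin-Tb in Tris pH 7.5 buffer with MgCl2, BSA, DTT, 2 h at 25 °C.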

[3] = biological target: T3, pseudo-kinase domain (JH2, amino-acids 536-812) of human Wild Type JAK2 (Homo sapiens, UniProt O60674, F794H/W659A/W777A); experiment: JAK2 LanthaScreen JH2-WT Binding Assay; conditions: 1 hour at 25° C.
T3 construct: pseudo-kinase domain (JH2, amino-acids 536-812 with 3 surface mutations W659A, W777A, F794H); purchased BPS Bioscience 79463; host or cells: baculovirus expression system
Summary of the method: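 Binding was measured by TR-FRET between streptavidin-Tb (0.25 nM) on biotinylated JH2 (0.145 nM) and 50 nM fluorescent tracer, with compound dose series, 1 h at 25° C; IC50 fitted.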

[4] = biological target: T4, pseudo-kinase domain (JH2, amino-acids 536-812) of human V617F mutant JAK2 (Homo sapiens, UniProt O60674, F794H/V617F/W659A/W777A); experiment: JAK2 LanthaScreen JH2-V617F Binding Assay; conditions: 1 hour at 25° C.
T4 construct: pseudo-kinase domain (JH2, amino-acids 536-812 with 3 surface mutations W659A, W777A, F794H); purchased BPS Bioscience 79498; host or cells: baculovirus expression system
Summary of the method: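 Biotinylated His-Avi-tagged JH2 protein was baculovirus-expressed and used at 0.26 nM. It was incubated with compound, 50 nM fluorescent JH2 tracer and 0.25 nM streptavidin-Tb for 1 h at 25 °C in pH 7.5 Tris buffer with MgCl2, BSA, DTT. Non-specific binding was defined with 2 mM ATP. IC50 came from four-parameter fits of TR-FRET signal.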

T3 sequence (O60674 536-812 W659A/W777A/F794H): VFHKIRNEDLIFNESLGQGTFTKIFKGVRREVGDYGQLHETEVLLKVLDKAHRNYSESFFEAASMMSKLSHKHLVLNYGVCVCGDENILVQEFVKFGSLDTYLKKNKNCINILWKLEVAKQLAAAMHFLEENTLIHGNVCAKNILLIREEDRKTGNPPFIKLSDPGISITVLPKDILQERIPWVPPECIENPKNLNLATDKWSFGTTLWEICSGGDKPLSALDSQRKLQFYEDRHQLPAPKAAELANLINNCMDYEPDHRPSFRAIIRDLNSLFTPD
T2 sequence (O60674 826-1132): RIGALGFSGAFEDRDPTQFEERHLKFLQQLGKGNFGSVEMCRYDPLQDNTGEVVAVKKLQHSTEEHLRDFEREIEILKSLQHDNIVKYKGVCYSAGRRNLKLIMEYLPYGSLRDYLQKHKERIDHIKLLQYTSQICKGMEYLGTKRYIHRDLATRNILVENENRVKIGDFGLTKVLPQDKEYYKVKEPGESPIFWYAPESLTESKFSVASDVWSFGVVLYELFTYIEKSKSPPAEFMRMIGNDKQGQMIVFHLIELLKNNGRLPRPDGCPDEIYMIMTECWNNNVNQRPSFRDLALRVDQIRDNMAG
T4 sequence (O60674 536-812 V617F/W659A/W777A/F794H): as the sequence (O60674 536-812 W659A/W777A/F794H) above, with V82F counted along it
T1 sequence (O60674 808-1132): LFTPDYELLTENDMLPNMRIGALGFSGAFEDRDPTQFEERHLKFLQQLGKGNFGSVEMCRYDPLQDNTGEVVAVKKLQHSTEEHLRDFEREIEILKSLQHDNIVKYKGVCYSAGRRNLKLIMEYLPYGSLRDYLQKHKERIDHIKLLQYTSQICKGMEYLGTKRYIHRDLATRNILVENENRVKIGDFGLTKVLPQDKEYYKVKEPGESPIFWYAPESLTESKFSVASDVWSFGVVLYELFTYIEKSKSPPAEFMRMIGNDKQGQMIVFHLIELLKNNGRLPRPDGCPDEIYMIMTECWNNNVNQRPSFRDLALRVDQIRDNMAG

| SMILES | IC50 [1] [nM] | IC50 [2] [nM] | IC50 [3] [nM] | IC50 [4] [nM] |
| --- | --- | --- | --- | --- |
| CN1C(=O)C2(CCN(c3ccncn3)CC2)c2c1cnc1[nH]c(-c3cnn(C)c3)c(C3=CCOCC3)c21 [Example 20, 1-(3,6-Dihydro-2H-pyran-4-yl)-6-methyl-2-(1-methyl-1H-pyrazol-4-yl)-(1-(pyrimidin-4-yl)-3,6-dihydro-7H-spiro[dipyrrolo[2,3-b:3′,2′-d]pyridine-8,4′-piperidin]-7-one, trifluoroacetate salt] | > 2500 | > 2500 | 100 to 500 | 100 to 500 |
| COc1cccc(NC(=O)N2CCC3(CC2)C(=O)N(C)c2cnc4[nH]c(-c5ccc(CN6CCC(S(C)(=O)=O)CC6)cc5)c(-c5ccccc5)c4c23)c1 [Example 21, N-(3-Methoxyphenyl)-6-methyl-2-(4-((4-(methylsulfonyl)piperidin-1-yl)methyl)phenyl)-7-oxo-1-phenyl-6,7-dihydro-3H-spiro[dipyrrolo[2,3-b:3′,2′-d]pyridine-8,4′-piperidine]-1′-carboxamide, trifluoroacetate salt] | > 2500 | > 2500 | ≤ 100 | ≤ 100 |
| CN1C(=O)C2(CCCC2)c2c1cnc1[nH]c(-c3cnn(C)c3)c(-c3ccc(CN4CCN(S(C)(=O)=O)CC4)cc3)c21 [Example 22, 6′-Methyl-2′-(1-methyl-1H-pyrazol-4-yl)-1′-(4-((4-(methylsulfonyl)piperazin-1-yl)methyl)phenyl)-3′,6′-dihydro-7′H-spiro[cyclopentane-1,8′-dipyrrolo[2,3-b:3′,2′-d]pyridin]-7′-one, trifluoroacetate salt] | > 2500 | > 2500 | ≤ 100 | 100 to 500 |
| CCS(=O)(=O)N1CC(CC#N)(N2CCC3(CC2)C(=O)N(C)c2cnc4[nH]c(-c5cnn(C)c5)c(-c5ccccc5)c4c23)C1 [Example 23, 2-(1-(Ethylsulfonyl)-3-(6-methyl-2-(1-methyl-1H-pyrazol-4-yl)-7-oxo-1-phenyl-6,7-dihydro-3H-spiro[dipyrrolo[2,3-b:3′,2′-d]pyridine-8,4′-piperidin]-1′-yl)azetidin-3-yl)acetonitrile, trifluoroacetate salt] | 100 to 500 | 500 to 1250 | ≤ 100 | ≤ 100 |
| CC(=O)N1CC(CC#N)(N2CCC3(CC2)C(=O)N(C)c2cnc4[nH]c(-c5cnn(C)c5)c(-c5ccccc5)c4c23)C1 [Example 24, 2-(1-Acetyl-3-(6-methyl-2-(1-methyl-1H-pyrazol-4-yl)-7-oxo-1-phenyl-6,7-dihydro-3H-spiro[dipyrrolo[2,3-b:3′,2′-d]pyridine-8,4′-piperidin]-1′-yl)azetidin-3-yl)acctonitrile, trifluoroacetate salt] | 100 to 500 | 500 to 1250 | ≤ 100 | ≤ 100 |
| CCNC(=O)N1CC(CC#N)(N2CCC3(CC2)C(=O)N(C)c2cnc4[nH]c(-c5cnn(C)c5)c(-c5ccccc5)c4c23)C1 [Example 25, 3-(Cyanomethyl)-N-ethyl-3-(6-methyl-2-(1-methyl-1H-pyrazol-4-yl)-7-oxo-1-phenyl-6,7-dihydro-3H-spiro[dipyrrolo[2,3-b:3′,2′-d]pyridine-8,4′-piperidin]-1′-yl)azetidine-1-carboxamide, trifluoroacetate salt] | 100 to 500 | 500 to 1250 | ≤ 100 | ≤ 100 |
| CCNC(=O)NC1CC(CC#N)(N2CCC3(CC2)C(=O)N(C)c2cnc4[nH]c(-c5cnn(C)c5)c(-c5ccccc5)c4c23)C1 (stereo not drawn) [Example 28, 1-(3-(Cyanomethyl)-3-(6-methyl-2-(1-methyl-1H-pyrazol-4-yl)-7-oxo-1-phenyl-6,7-dihydro-3H-spiro[dipyrrolo[2,3-b:3′,2′-d]pyridine-8,4′-piperidin]-1′-yl)cyclobutyl)-3-ethylurea, trifluoroacetate salt] | 100 to 500 | 100 to 500 | ≤ 100 | ≤ 100 |
| CN1C(=O)C2(CCN(C3(CC#N)CC(NS(=O)(=O)c4ccccc4)C3)CC2)c2c1cnc1[nH]c(-c3cnn(C)c3)c(-c3ccccc3)c21 (stereo not drawn) [Example 29, N-(3-(Cyanomethyl)-3-(6-methyl-2-(1-methyl-1H-pyrazol-4-yl)-7-oxo-1-phenyl-6,7-dihydro-3H-spiro[dipyrrolo[2,3-b:3′,2′-d]pyridine-8,4′-piperidin]-1-yl)cyclobutyl)benzenesulfonamide, trifluoroacctate salt] | 500 to 1250 | 500 to 1250 | ≤ 100 | ≤ 100 |
| CN1C(=O)C2(CCN(C3(CC#N)CCC3)CC2)c2c1cnc1[nH]c(-c3cnn(CC(F)F)c3)c(-c3ccc4c(cnn4C)c3)c21 [Example 30, 2-(1-(2-(1-(2,2-Difluoroethyl)-1H-pyrazol-4-yl)-6-methyl-1-(1-methyl-1H-indazol-5-yl)-7-oxo-6,7-dihydro-3H-spiro[dipyrrolo[2,3-b:3′,2′-d]pyridine-8,4′-piperidin]-1′-yl)cyclobutyl)acetonitrile, trifluoroacetate salt] | 100 to 500 | 100 to 500 | ≤ 100 | ≤ 100 |
| CN1C(=O)C2(CCN(C3(CC#N)CCC3)CC2)c2c1cnc1[nH]c(-c3cnn(C)c3)c(-c3ccc4c(cnn4C)c3)c21 [Example 31, 2-(1-(6-Methyl-1-(1-methyl-1H-indazol-5-yl)-2-(1-methyl-1H-pyrazol-4-yl)-7-oxo-6,7-dihydro-3H-spiro[dipyrrolo[2,3-b:3′,2′-d]pyridine-8,4′-piperidin]-1′-yl)cyclobutyl)acetonitrile, trifluoroacetate salt] | 100 to 500 | 100 to 500 | ≤ 100 | ≤ 100 |
| CN1C(=O)C2(CCN(C3(CC#N)CCC3)CC2)c2c1cnc1[nH]c(-c3cnn(CC(C)(C)O)c3)c(-c3ccc4c(cnn4C)c3)c21 [Example 32, 2-(1-(2-(1-(2-Hydroxy-2-methylpropyl)-1H-pyrazol-4-yl)-6-methyl-1-(1-methyl-1H-indazol-5-yl)-7-oxo-6,7-dihydro-3H-spiro[dipyrrolo[2,3-b:3′,2′-d]pyridine-8,4′-piperidin]-1′-yl)cyclobutyl)acetonitrile, trifluoroacetate salt] | 100 to 500 | 100 to 500 | ≤ 100 | ≤ 100 |
| CN1C(=O)C2(CCN(C3(CC#N)CCC3)CC2)c2c1cnc1[nH]c(-c3cnn(CC(F)(F)F)c3)c(-c3ccc4c(cnn4C)c3)c21 [Example 33, 2-(1-(6-Methyl-1-(1-methyl-1H-indazol-5-yl)-7-oxo-2-(1-(2,2,2-trifluoroethyl)-1H-pyrazol-4-yl)-6,7-dihydro-3H-spiro[dipyrrolo[2,3-b:3′,2′-d]pyridine-8,4′-piperidin]-1′-yl)cyclobutyl)acetonitrile, trifluoroacetate salt] | 500 to 1250 | 500 to 1250 | ≤ 100 | ≤ 100 |
| CCS(=O)(=O)c1ccc(-c2[nH]c3ncc4c(c3c2-c2ccc3c(cnn3C)c2)C2(CCN(C3(CC#N)CCC3)CC2)C(=O)N4C)cc1 [Example 35, 2-(1-(2-(4-(Ethylsulfonyl)phenyl)-6-methyl-1-(1-methyl-1H-indazol-5-yl)-7-oxo-6,7-dihydro-3H-spiro[dipyrrolo[2,3-b:3′,2′-d]pyridine-8,4′-piperidin]-1′-yl)cyclobutyl)acetonitrile, trifluoroacetate salt] | 500 to 1250 | 500 to 1250 | ≤ 100 | ≤ 100 |
| COCCn1cc(-c2[nH]c3ncc4c(c3c2-c2ccc3c(cnn3C)c2)C2(CCN(C3(CC#N)CCC3)CC2)C(=O)N4C)cn1 [Example 36, 2-(1-(2-(1-(2-Methoxyethyl)-1H-pyrazol-4-yl)-6-methyl-1-(1-methyl-1H-indazol-5-yl)-7-oxo-6,7-dihydro-3H-spiro[dipyrrolo[2,3-b:3′,2′-d]pyridine-8,4′-piperidin]-1′-yl)cyclobutyl)acetonitrile, trifluoroacetate salt] | 100 to 500 | 100 to 500 | ≤ 100 | ≤ 100 |
| CN1C(=O)C2(CCN(C3(CC#N)CCC3)CC2)c2c1cnc1[nH]c(-c3cnn(C(C)(C)CO)c3)c(-c3ccc4c(cnn4C)c3)c21 [Example 37, 2-(1-(2-(1-(1-Hydroxy-2-methylpropan-2-yl)-1H-pyrazol-4-yl)-6-methyl-1-(1-methyl-1H-indazol-5-yl)-7-oxo-6,7-dihydro-3H-spiro[dipyrrolo[2,3-b:3′,2′-d]pyridine-8,4′-piperidin]-1′-yl)cyclobutyl)acetonitrile, trifluoroacetate salt] | 100 to 500 | 100 to 500 | ≤ 100 | ≤ 100 |
